According to ChEMBL document CHEMBL3804804, “Synthesis and antimycobacterial activity of N-(2-aminopurin-6-yl) and N-(purin-6-yl) amino acids and dipeptides” (Bioorg Med Chem Lett, 2016):
Converted amounts (≈) assume the structure as drawn.

What was measured:
[1] = test system: Mycobacterium tuberculosis; assay: Antimycobacterial activity against Mycobacterium tuberculosis H37Rv after 10 days by micro broth dilution method; assay type: functional; conditions: 240 h
[2] = Cytotoxicity against human FEH cells after 72 hrs by MTT assay; assay type: cell-based
[3] = test system: Mycobacterium avium; assay: Antimycobacterial activity against Mycobacterium avium after 10 days by micro broth dilution method; assay type: functional; conditions: 240 h
[4] = test system: Mycolicibacter terrae; assay: Antimycobacterial activity against Mycobacterium terrae after 10 days by micro broth dilution method; assay type: functional; conditions: 240 h

| Structure (SMILES) | MIC [1] | IC50 [2] | MIC [3] | MIC [4] |
| --- | --- | --- | --- | --- |
| COC(=O)[C@@H](NC(=O)CNc1nc(NC(C)=O)nc2[nH]cnc12)C(C)C | 12.5 µg/mL (≈ 34.4 µM) |  |  |  |
| COC(=O)CC[C@H](NC(=O)CNc1nc(NC(C)=O)nc2[nH]cnc12)C(=O)OC | 12.5 µg/mL (≈ 30.7 µM) |  |  |  |
| O.O=C(CNc1ncnc2[nH]cnc12)N[C@@H](Cc1ccccc1)C(=O)O | 3.1 µg/mL | > 50 µM |  |  |
| Nc1nc(N[C@@H](Cc2ccccc2)C(=O)O)c2nc[nH]c2n1 | 12.5 µg/mL (≈ 41.9 µM) |  |  |  |
| COC(=O)C[C@H](NC(=O)CNc1nc(NC(C)=O)nc2[nH]cnc12)C(=O)OC | 12.5 µg/mL (≈ 31.8 µM) |  |  |  |
| O=C(O)CCCCCNc1ncnc2[nH]cnc12 | 12.5 µg/mL (≈ 50.1 µM) |  |  |  |
| CC(C)C[C@H](NC(=O)CNc1nc(N)nc2[nH]cnc12)C(=O)O.O | 12.5 µg/mL |  |  |  |
| Nc1nc(NCC(=O)N[C@@H](Cc2ccccc2)C(=O)O)c2nc[nH]c2n1.O.O | 6.25 µg/mL |  |  |  |
| Nc1nc(N2CCC[C@H]2C(=O)O)c2nc[nH]c2n1 | 12.5 µg/mL (≈ 50.4 µM) |  |  |  |
| CC(C)C[C@H](NC(=O)CNc1ncnc2[nH]cnc12)C(=O)O.O | 12.5 µg/mL |  |  |  |
| Nc1nc(NCC(=O)O)c2nc[nH]c2n1 | 12.5 µg/mL (≈ 60 µM) |  |  |  |
| Nc1nc(NCC(=O)N[C@@H](CCC(=O)O)C(=O)O)c2nc[nH]c2n1 | 0.7 µg/mL (≈ 2.08 µM) | > 50 µM | 0.35 µg/mL (≈ 1.04 µM) | 0.35 µg/mL (≈ 1.04 µM) |
| NNC(=O)c1ccncc1 [ISONIAZID] | 0.1 µg/mL (≈ 0.729 µM) |  | 0.1 µg/mL (≈ 0.729 µM) | 0.1 µg/mL (≈ 0.729 µM) |
| COC(=O)[C@H](Cc1ccccc1)NC(=O)CNc1nc(NC(C)=O)nc2[nH]cnc12 | 12.5 µg/mL (≈ 30.4 µM) |  |  |  |
| COC(=O)[C@H](CC(C)C)NC(=O)CNc1nc(NC(C)=O)nc2[nH]cnc12 | 12.5 µg/mL (≈ 33.1 µM) |  |  |  |
| CC(=O)Nc1nc(N[C@H](C(=O)OC(C)(C)C)C(C)C)c2nc[nH]c2n1 | 12.5 µg/mL (≈ 35.9 µM) |  |  |  |
| COC(=O)CNc1nc(N)nc2[nH]cnc12.Cl.Cl | 6.25 µg/mL | > 50 µM | 6.25 µg/mL | 6.25 µg/mL |
| C[C@H](Nc1nc(N)nc2[nH]cnc12)C(=O)O | 12.5 µg/mL (≈ 56.3 µM) |  |  |  |
| COC(=O)[C@H](CC(C)C)NC(=O)CNc1ncnc2[nH]cnc12 | 12.5 µg/mL (≈ 39 µM) |  |  |  |
| CSCC[C@H](NC(=O)CNc1ncnc2[nH]cnc12)C(=O)O.O | 12.5 µg/mL |  |  |  |
| O=C(O)CCNc1[nH]cnc2ncnc1-2 | 12.5 µg/mL (≈ 60.3 µM) |  |  |  |
| COC(=O)[C@H](CCSC)NC(=O)CNc1nc(NC(C)=O)nc2[nH]cnc12 | 3.1 µg/mL (≈ 7.84 µM) | > 50 µM | 3.1 µg/mL (≈ 7.84 µM) | 1.5 µg/mL (≈ 3.79 µM) |

| Structure (SMILES) | MIC [1] | IC50 [2] | MIC [3] | MIC [4] |
| --- | --- | --- | --- | --- |
| COC(=O)[C@H](C)NC(=O)CNc1nc(NC(C)=O)nc2[nH]cnc12.O | 12.5 µg/mL |  |  |  |
| CC(C)[C@H](NC(=O)CNc1ncnc2[nH]cnc12)C(=O)O.O | 12.5 µg/mL |  |  |  |
| O=C(O)CCCNc1ncnc2[nH]cnc12 | 12.5 µg/mL (≈ 56.5 µM) |  |  |  |
| CC(=O)Nc1nc(NCC(=O)O)c2nc[nH]c2n1 | 0.7 µg/mL (≈ 2.8 µM) | > 50 µM | 0.7 µg/mL (≈ 2.8 µM) | 0.7 µg/mL (≈ 2.8 µM) |
| C[C@H](NC(=O)CNc1nc(N)nc2[nH]cnc12)C(=O)O.O | 6.25 µg/mL |  |  |  |
| CC(=O)Nc1nc(N2CCC[C@H]2C(=O)OC(C)(C)C)c2nc[nH]c2n1 | 6.25 µg/mL (≈ 18 µM) | > 50 µM | 6.25 µg/mL (≈ 18 µM) | 6.25 µg/mL (≈ 18 µM) |
| O=C(O)CNc1ncnc2[nH]cnc12 | 6.25 µg/mL (≈ 32.4 µM) |  |  |  |
| COC(=O)[C@@H](NC(=O)CNc1ncnc2[nH]cnc12)C(C)C | 12.5 µg/mL (≈ 40.8 µM) |  |  |  |
| COC(=O)[C@H](CCSC)NC(=O)CNc1ncnc2[nH]cnc12 | 12.5 µg/mL (≈ 36.9 µM) |  |  |  |
| CC(C)[C@H](NC(=O)CNc1nc(N)nc2[nH]cnc12)C(=O)O.O.O | 12.5 µg/mL |  |  |  |
| C[C@H](NC(=O)CNc1ncnc2[nH]cnc12)C(=O)O.O | 12.5 µg/mL |  |  |  |
| O.O=C(O)CC[C@H](NC(=O)CNc1ncnc2[nH]cnc12)C(=O)O | 0.7 µg/mL | > 50 µM | 0.7 µg/mL | 0.7 µg/mL |
| CC(=O)Nc1nc(N[C@@H](CC(=O)OC(C)(C)C)C(=O)OC(C)(C)C)c2nc[nH]c2n1 | 12.5 µg/mL (≈ 29.7 µM) |  |  |  |
| CC(C)[C@H](Nc1nc(N)nc2[nH]cnc12)C(=O)O | 6.25 µg/mL (≈ 25 µM) | > 50 µM | 6.25 µg/mL (≈ 25 µM) | 6.25 µg/mL (≈ 25 µM) |
| CSCC[C@H](NC(=O)CNc1nc(N)nc2[nH]cnc12)C(=O)O.O | 3.1 µg/mL | > 50 µM | 3.1 µg/mL | 3.1 µg/mL |
| CC(=O)Nc1nc(N[C@@H](Cc2ccccc2)C(=O)OC(C)(C)C)c2nc[nH]c2n1 | 12.5 µg/mL (≈ 31.5 µM) |  |  |  |
| CC(=O)Nc1nc(N[C@@H](C)C(=O)OC(C)(C)C)c2nc[nH]c2n1 | 12.5 µg/mL (≈ 39 µM) |  |  |  |
| COC(=O)CC[C@H](NC(=O)CNc1ncnc2[nH]cnc12)C(=O)OC | 12.5 µg/mL (≈ 35.7 µM) |  |  |  |
| Nc1nc(NCC(=O)N[C@@H](CC(=O)O)C(=O)O)c2nc[nH]c2n1 | 12.5 µg/mL (≈ 38.7 µM) |  |  |  |
| CC1COc2c(N3CCN(C)CC3)c(F)cc3c(=O)c(C(=O)O)cn1c23 (stereo unspecified) [OFLOXACIN] | 0.1 µg/mL (≈ 0.277 µM) |  | 0.1 µg/mL (≈ 0.277 µM) | 0.1 µg/mL (≈ 0.277 µM) |
| COC(=O)[C@H](C)NC(=O)CNc1ncnc2[nH]cnc12 | 12.5 µg/mL (≈ 44.9 µM) |  |  |  |
| COC(=O)[C@H](Cc1ccccc1)NC(=O)CNc1ncnc2[nH]cnc12 | 1.5 µg/mL (≈ 4.23 µM) | > 50 µM | 1.5 µg/mL (≈ 4.23 µM) | 1.5 µg/mL (≈ 4.23 µM) |
